Tests used:
[1] = mouse, in vivo, iv
Method: The impact of CTA-PGMA-DODA and PMGA-DODA on the circulation profile of radiolabeled [^14C]-liposomes was studied in healthy Balb/c mice. In this study, the concentrations of radiolabeled liposomes in the blood were monitored for 6 hours after intravenous injection.
Healthy animals were housed in a controlled environment (22° C., 12 hours day/night cycle) with ad libitum access to food and water. A total of 11 healthy male mice were divided in three groups (3-3-5). As a blank, liposomes without polymer on the surface were injected intravenously by the subclavian vein at a concentration of 2 mg/kg of phospholipids. Approximately 30-50 μL of blood was collected at various times (0.25, 0.5, 1, 2, 4, 6 Hours). Six hours post-injection, blood was collected by cardiac puncture for a terminal timepoint. Animals were euthanized by a cardiac perfusion with 3 mL of isotonic phosphate-buffered saline solution pH=7.2 (potassium phosphate 1.1 mmol/L, NaCl 150 mmol/L, disodium phosphate 3 mmol/L) and organs were collected. Biological samples were digested at 58° C. (in Solvable®, Perkin Elmer®), bleached with 30% hydrogen peroxide, and assessed by scintillation counting, using Hionic Fluor® (Perkin Elmer®) as a scintillation cocktail.

[2] = Critical micellar concentration by Nile red fluorescence; format: physicochemical
Method: We characterized the critical micellar concentration (CMC) of the polymers to evaluate their ability to self-assemble into polymolecular structures.
Nile red can be used to measure the CMC of surfactants and polymolecular architectures by following the fluorescence of the dye: the critical micelle concentration coincides with a strong increase in the intensity of the fluorescence (λex/em: 549/628 nm). Serial dilutions of polymers were made in the range of 2.5 to 7×10^−4 mg/mL. 200 μL of each sample were used with 10 μL of Nile Red solution in methanol (1×10^−5 M). Fluorescence was read in a 96-well plate (λex/em: 549/628 nm).

Row | AUC0-6 h of the control liposomes relative to the liposome formulation prepared with the named polymer [1] [fold] | CMC [2] [mg/mL] | Molecule | effect on circulation time of liposomes [1]
1 | 1.2 |  | DODA-Terminated Poly(Monoglycerol Acrylate) [PMGA-DODA6.5k] | do not seem to prolong the circulation time
2 |  | 2 | CCCCCCCCCCCCOS(=O)(=O)[O-].[Na+] [SDS, sodium dodecyl sulfate] | 
